According to US10077261B2, “Imidazolin-5-one derivative useful as FASN inhibitors for the treatment of cancer” (Janssen Pharmaceutica NV, priority 2012, dated 2018):

Assays:
A2780 ovarian cells [1] = test: A2780 ovarian cell proliferation assay in lipid reduced medium, with palmitate (MTT); type: cell-based; conditions: Homo sapiens, A2780, 96 h; read-out: pIC50 A2780 Ovarian Cell, With Palmitate (converted)
Procedure, shortened: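 In this palmitate-supplemented format, compound dilutions (30 μM down to 0.01 μM) are added to cells in lipid-reduced serum with 25 μM palmitate, 0.2% fatty-acid-free BSA and 0.25% ethanol. After four days (96 h) MTT absorbance at 544 nm is recorded and fitted by minimum sum of squares.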

A2780 ovarian cells [2] = test: A2780 ovarian cell proliferation assay in lipid reduced medium, without palmitate (MTT); type: cell-based; conditions: Homo sapiens, A2780, 96 h; read-out: pIC50 A2780 Ovarian Cell, Without Palmitate (converted)
[3] = biological target: Fatty Acid Synthase Keto-reductase Domain (FASN KR) (Homo sapiens, UniProt P49327); test: Fatty Acid Synthase keto-reductase domain (FASN KR) inhibition, NADPH oxidation at 340 nm
Chain of Fatty Acid Synthase Keto-reductase Domain (FASN KR) (P49327 whole entry, the tested form may be a part): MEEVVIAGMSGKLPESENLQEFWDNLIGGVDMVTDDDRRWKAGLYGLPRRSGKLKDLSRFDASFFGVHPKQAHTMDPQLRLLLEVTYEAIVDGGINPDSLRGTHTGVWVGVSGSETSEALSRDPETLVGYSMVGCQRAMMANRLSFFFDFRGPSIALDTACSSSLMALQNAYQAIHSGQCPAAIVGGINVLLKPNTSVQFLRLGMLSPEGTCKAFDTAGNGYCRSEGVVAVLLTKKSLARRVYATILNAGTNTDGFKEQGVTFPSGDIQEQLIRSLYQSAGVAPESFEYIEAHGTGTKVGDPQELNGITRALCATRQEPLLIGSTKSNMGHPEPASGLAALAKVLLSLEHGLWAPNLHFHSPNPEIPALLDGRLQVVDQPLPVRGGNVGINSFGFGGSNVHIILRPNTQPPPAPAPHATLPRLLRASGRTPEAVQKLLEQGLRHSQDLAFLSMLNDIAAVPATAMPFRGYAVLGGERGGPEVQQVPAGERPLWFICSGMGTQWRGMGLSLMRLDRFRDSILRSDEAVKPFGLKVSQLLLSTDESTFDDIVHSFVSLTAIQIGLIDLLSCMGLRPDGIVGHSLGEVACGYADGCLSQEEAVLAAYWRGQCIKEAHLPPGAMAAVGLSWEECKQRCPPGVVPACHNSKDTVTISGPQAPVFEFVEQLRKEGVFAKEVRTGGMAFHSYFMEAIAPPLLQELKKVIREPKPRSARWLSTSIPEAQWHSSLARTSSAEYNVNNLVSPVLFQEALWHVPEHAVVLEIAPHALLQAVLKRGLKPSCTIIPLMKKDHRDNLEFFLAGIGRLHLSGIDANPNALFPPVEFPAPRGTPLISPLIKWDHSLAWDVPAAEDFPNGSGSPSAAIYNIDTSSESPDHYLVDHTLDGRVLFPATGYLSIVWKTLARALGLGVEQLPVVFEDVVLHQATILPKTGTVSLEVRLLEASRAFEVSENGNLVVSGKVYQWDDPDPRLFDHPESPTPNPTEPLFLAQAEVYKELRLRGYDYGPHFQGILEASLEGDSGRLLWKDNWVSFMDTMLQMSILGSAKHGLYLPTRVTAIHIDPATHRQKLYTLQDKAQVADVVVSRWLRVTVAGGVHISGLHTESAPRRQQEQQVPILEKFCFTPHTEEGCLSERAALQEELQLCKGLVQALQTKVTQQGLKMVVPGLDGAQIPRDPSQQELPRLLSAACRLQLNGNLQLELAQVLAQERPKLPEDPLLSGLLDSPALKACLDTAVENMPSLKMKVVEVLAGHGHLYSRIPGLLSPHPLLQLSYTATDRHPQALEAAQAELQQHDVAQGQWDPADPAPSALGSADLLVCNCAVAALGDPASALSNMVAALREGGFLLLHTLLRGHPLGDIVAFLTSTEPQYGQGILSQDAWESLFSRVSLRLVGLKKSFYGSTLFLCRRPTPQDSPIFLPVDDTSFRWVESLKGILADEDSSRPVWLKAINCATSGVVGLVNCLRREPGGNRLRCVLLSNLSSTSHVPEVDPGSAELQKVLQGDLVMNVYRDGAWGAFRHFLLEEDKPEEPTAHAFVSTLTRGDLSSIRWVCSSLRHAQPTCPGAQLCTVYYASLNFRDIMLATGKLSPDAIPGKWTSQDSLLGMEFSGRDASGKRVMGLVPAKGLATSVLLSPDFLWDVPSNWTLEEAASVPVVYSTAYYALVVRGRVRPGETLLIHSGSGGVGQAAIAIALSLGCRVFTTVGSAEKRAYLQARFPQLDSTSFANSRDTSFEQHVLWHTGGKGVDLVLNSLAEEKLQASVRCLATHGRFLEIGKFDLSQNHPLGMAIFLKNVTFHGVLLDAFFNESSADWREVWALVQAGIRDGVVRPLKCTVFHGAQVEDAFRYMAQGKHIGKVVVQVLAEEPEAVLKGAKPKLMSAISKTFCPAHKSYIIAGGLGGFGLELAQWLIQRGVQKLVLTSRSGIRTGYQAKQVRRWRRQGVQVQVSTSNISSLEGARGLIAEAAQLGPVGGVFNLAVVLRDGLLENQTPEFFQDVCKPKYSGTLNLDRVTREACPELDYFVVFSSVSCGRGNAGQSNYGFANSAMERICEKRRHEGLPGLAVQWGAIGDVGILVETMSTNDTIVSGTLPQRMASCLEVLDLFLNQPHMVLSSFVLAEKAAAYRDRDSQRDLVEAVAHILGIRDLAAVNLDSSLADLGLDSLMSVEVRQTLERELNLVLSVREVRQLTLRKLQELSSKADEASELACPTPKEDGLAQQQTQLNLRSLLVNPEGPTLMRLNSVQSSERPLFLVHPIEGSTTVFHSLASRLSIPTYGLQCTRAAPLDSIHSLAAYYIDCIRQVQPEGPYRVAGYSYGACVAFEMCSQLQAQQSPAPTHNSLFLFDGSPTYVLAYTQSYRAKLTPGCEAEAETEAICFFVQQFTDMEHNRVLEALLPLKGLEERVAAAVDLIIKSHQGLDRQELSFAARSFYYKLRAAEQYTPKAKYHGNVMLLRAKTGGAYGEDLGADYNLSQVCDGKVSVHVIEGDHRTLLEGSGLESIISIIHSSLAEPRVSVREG
Experimental: After 20 minutes incubation at room temperature the plate was measured again (T2).
The decrease in absorbance was calculated as (Absorbance before incubation T1)−(Absorbance following incubation T2).
A plot of Controlmin versus test compound concentration was fitted to a 4-parameter logistic curve using a non-linear least squares regression method.

[4] = biological target: T1, hFASN enzyme (full length) (Homo sapiens, UniProt P49327); test: Fatty Acid Synthase (FASN) inhibition scintillation proximity assay; type: biochemical; conditions: for inhibition at 10 µM: read-out: Human FASN % inhibition @ 10 μM, 10 μM test compound; for IC50: read-out: Human FASN pIC50 (converted)
T1 construct: 10 μL hFASN enzyme (full length, 300 ng, purified in house); made in house
T1 sequence (P49327 whole entry): as the sequence (P49327 whole entry, the tested form may be a part) above
Procedure, shortened: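 Scintillation proximity format: in-house full-length enzyme, 300 ng per well, pH 7.5 phosphate/DTT buffer, ³H-acetyl-CoA and malonyl-CoA. Emission counted on LEADseeker at 610 nm at least 24 h after stopping.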

| SMILES | IC50 (A2780 ovarian cells [1]) | IC50 (A2780 ovarian cells [2]) | IC50 [3] | inhibition at 10 µM [4] | IC50 [4] |
| --- | --- | --- | --- | --- | --- |
| O=C(C1CC1)N1CC(CN2C(=O)C3(CCCC3)N=C2c2ccc(-c3ccc4cnccc4c3)cc2)C1 [compound 79, 3-{[1-(Cyclopropylcarbonyl)azetidin-3-yl]methyl}-2-(4-isoquinolin-6-ylphenyl)-1,3-diazaspiro[4.4]non-1-en-4-one] | > 10 µM | 0.145 µM | 0.324 µM | 108% | 0.0617 µM |
| Cc1cc(-c2ccc3occc3c2)ccc1C1=NC2(CC2)C(=O)N1C[C@@H]1CCN(C(=O)C2CC2)C1 [compound 278, (R)-5-(4-(benzofuran-5-yl)-2-methylphenyl)-6-((1-(cyclopropanecarbonyl)pyrrolidin-3-yl)methyl)-4,6-diazaspiro[2.4]hept-4-en-7-one] | > 10 µM | ~0.692 µM | 0.0692 µM | 113% | 0.0257 µM |
| COCc1nn(C)c2ccc(-c3ccc(C4=NC5(CC5)C(=O)N4CC4CN(C(=O)C5CC5)C4)c(C)c3)cc12 [compound 588, 6-{[1-(Cyclopropylcarbonyl)azetidin-3-yl]methyl}-5-{4-[3-(methoxymethyl)-1-methyl-1H-indazol-5-yl]-2-methylphenyl}-4,6-diazaspiro[2.4]hept-4-en-7-one] | > 10 µM | ~0.676 µM | 1.17 µM | 93% | 0.603 µM |
| O=C(C1CC1)N1CC[C@@H](CN2C(=O)C3(CCCC3)N=C2c2ccc(-c3ccc4cc[nH]c4c3)cc2F)C1 [compound 874, (R)-3-((1-(cyclopropanecarbonyl)pyrrolidin-3-yl)methyl)-2-(2-fluoro-4-(1H-indol-6-yl)phenyl)-1,3-diazaspiro[4.4]non-1-en-4-one] | > 10 µM | 0.0209 µM | 0.0407 µM | 108% | 0.0251 µM |
| Cn1cc(-c2ccc(-c3ccc(C4=NC5(CC5)C(=O)N4CC4CCN(C(=O)C5CC5)CC4)cc3)cc2)cn1 [compound 56, 6-{[1-(Cyclopropylcarbonyl)piperidin-4-yl]methyl}-5-[4′-(1-methyl-1H-p;yrazol-4-yl)biphenyl-4-yl]-4,6-diazaspiro[2.4]hept-4-en-7-one] | 6.03 µM | 1.58 µM | 1.38 µM | 89.2% | 0.407 µM |
| N#Cc1ccc(-c2ccc(C3=NC4(CC4)C(=O)N3CC3CN(C(=O)C4CC4)C3)cc2)cc1 [compound 41, 4′-(6-{[1-(Cyclopropylcarbonyl)azetidin-3-yl]methyl}-7-oxo-4,6-diazaspiro[2.4]hept-4-en-5-yl)biphenyl-4-carbonitrile] | > 10 µM | 1.2 µM | 0.851 µM | 92.6% | 0.457 µM |
| O=C(C1CC1)N1CC[C@@H](CN2C(=O)C3(CC3)N=C2c2ccc(-c3ccc(-c4ccncc4)cc3)cc2)C1 [compound 235, (R)-6-((1-(cyclopropanecarbonyl)pyrrolidin-3-yl)methyl)-5-(4′-(pyridin-4-yl)-[1,1′-biphenyl]-4-yl)-4,6-diazaspiro[2.4]hept-4-en-7-one] | > 10 µM | 0.01 µM | 0.0457 µM | 111% | 0.0234 µM |
| COC(=O)N1CCC2(CC1)N=C(c1ccc(-c3ccc4[nH]ccc4c3)cc1)N(C[C@@H]1CCN(C(=O)C3CC3)C1)C2=O [compound 15, Methyl 3-{[(3R)-1-(cyclopropylcarbonyl)pyrrolidin-3-yl]methyl}-2-[4-(1H-indol-5-yl)phenyl]-4-oxo-1,3,8-triazaspiro[4.5]dec-1-ene-8-carboxylate] | > 10 µM | ~0.0631 µM | 0.0708 µM | 113% | 0.0437 µM |
| COc1ccc(-c2ccc(C3=NC4(CCCC4)C(=O)N3C[C@@H]3CCN(C(=O)C4CC4)C3)cc2)cc1 [compound 85, 3-{[(3R)-1-(Cyclopropylcarbonyl)pyrrolidin-3-yl]methyl}-2-(4′-methoxybiphenyl-4-yl)-1,3-diazaspiro[4.4]non-1-en-4-one] | > 10 µM | ~2.88 µM | 2.04 µM | 97.9% | 0.355 µM |
| O=C(C1CC1)N1CC(CN2C(=O)C3(CCN(CCO)CC3)N=C2c2ccc(-c3ccc4[nH]ccc4c3)cc2)C1 [compound 757, 3-{[1-(Cyclopropylcarbonyl)azetidin-3-yl]methyl}-8-(2-hydroxyethyl)-2-[4-(1H-indol-5-yl)phenyl]-1,3,8-triazaspiro[4.5]dec-1-en-4-one] | > 10 µM | 0.708 µM | 1 µM | 104% | 0.158 µM |
| O=C(C1CC1)N1CC[C@@H](CN2C(=O)C3(CCCC3)N=C2c2ccc(-c3ccc4cnccc4c3)cc2)C1 [compound 12, 3-{[(3R)-1-(Cyclopropylcarbonyl)pyrrolidin-3-yl]methyl}-2-(4-isoquinolin-6-ylphenyl)-1,3-diazaspiro[4.4]non-1-en-4-one] | 3.8 µM | ~0.0363 µM | 0.049 µM | 99.4% | 0.0257 µM |
| O=C(C1CC1)N1CC[C@@H](CN2C(=O)C3(CCCC3)N=C2c2ccc(-c3cccc(-c4cc[nH]n4)c3)cc2)C1 [compound 70, 3-{[(3R)-1-(Cyclopropylcarbonyl)pyrrrolidin-3-yl]methyl}-2-[3′-(1H-pyrazol-3-yl)biphenyl-4-yl]-1,3-diazaspiro[4.4]non-1-en-4-one] | > 10 µM | ~2.4 µM | 1.35 µM | 92.5% | 0.537 µM |
| O=C(C1CC1)N1CC(CN2C(=O)C3(CC3)N=C2c2ccc(-c3ccc4[nH]ccc4c3)cc2)C1 [compound 40, 6-{[1-(Cyclopropylcarbonyl)azetidin-3-yl]methyl}-5-[4-(1H-indol-5-yl)phenyl]-4,6-diazaspiro[2.4]hept-4-en-7-one] | > 10 µM | 0.0724 µM | 0.0427 µM | 106% | 0.0186 µM |
| O=C(C1CC1)N1CC[C@@H](CN2C(=O)C3(CCCC3)N=C2c2ccc(-c3cccc4ncccc34)cc2)C1 [compound 66, 3-{[(3R)-1-(Cyclopropylcarbonyl)pyrrolidin-3-yl]methyl}-2-(4-quinolin-5-ylphenyl)-1,3-diazaspiro[4.4]non-1-en-4-one] | > 10 µM | 1.1 µM | 0.282 µM | 106% | 0.0741 µM |
| COc1ccc(-c2ccc(C3=NC4(CC4)C(=O)N3C[C@@H]3CCN(C(=O)C4CC4)C3)cc2)cc1 [compound 103, 6-{[(3R)-1-(Cyclopropylcarbonyl)pyrrolidin-3-yl]methyl}-5-(4′-methoxybiphenyl-4-yl)-4,6-diazaspiro[2.4]hept-4-en-7-one] | > 10 µM | 0.851 µM | 0.316 µM | 109% | 0.0676 µM |
| Cn1ncc2ccc(-c3ccc(C4=NC5(CC5)C(=O)N4CC4CN(C(=O)C5CC5)C4)cc3)cc21 [compound 38, 6-{[1-(Cyclopropylcarbonyl)azetidin-3-yl]methyl}-5-[4-(1-methyl-1H-indazol-6-yl)phenyl]-4,6-diazaspiro[2.4]hept-4-en-7-one] | > 10 µM | 1.2 µM | 0.646 µM | 94.9% | 0.269 µM |
| O=C(C1CC1)N1CC[C@@H](CN2C(=O)C3(CC3)N=C2c2ccc(-c3nc4ccccc4[nH]3)cc2F)C1 [compound 538, 5-[4-(1H-Benzimidazol-2-yl)-2-fluorophenyl]-6-{[(3R)-1-(cyclopropylcarbonyl)pyrrolidin-3-yl]methyl}-4,6-diazaspiro[2.4]hept-4-en-7-one] | ~10 µM | 0.132 µM | 0.331 µM | 99% | 0.17 µM |
| O=C(C1CC1)N1CC(CN2C(=O)C3(CCCC3)N=C2c2ccc(-c3ccc4occc4c3)cc2)C1 [compound 80, 2-[4-(1-Benzofuran-5-yl)phenyl]-3-{[1-(cyclopropylcarbonyl)azetidin-3-yl]methyl}-1,3-diazaspiro[4.4]non-1-en-4-one] | > 10 µM | 2.29 µM | 1.48 µM | 92.1% | 0.437 µM |
| Cc1nnc(-c2ccc(-c3ccc(C4=NC5(CCCC5)C(=O)N4C[C@@H]4CCN(C(=O)C5CC5)C4)c(C)c3)cc2)o1 [compound 882, (R)-3-((1-(cyclopropanecarbonyl)pyrrolidin-3-yl)methyl)-2-(3-methyl-4′-(5-methyl-1,3,4-oxadiazol-2-yl)-[1,1′-biphenyl]-4-yl)-1,3-diazaspiro[4.4]non-1-en-4-one] | > 10 µM | ~0.0891 µM | 0.295 µM | 107% | 0.135 µM |
| O=C(C1CC1)N1CC(CN2C(=O)C3(CC3)N=C2c2ccc(-c3ccc(-c4cccnc4)cc3)cc2)C1 [compound 60, 6-{[1-(Cyclopropylcarbonyl)azetidin-3-yl]methyl}-5-(4′-pyridin-3-ylbiphenyl-4-yl)-4,6-diazaspiro[2.4]hept-4-en-7-one] | > 10 µM | 0.263 µM | 0.288 µM | 99.4% | 0.0933 µM |
